Key:
Format in all cases: binding
FXR = target: T1, FXR (Homo sapiens, UniProt Q96RI1); test: ITC measurement FXR LBD; set-up: key: n.b.: no binding; w.b.: weak binding; details: 50 μM protein, 250 μM compound, 25 °C
T1 construct: His6-tag and TEV site (N, cleaved yes); made in house; host or cells: E. coli BL21 (DE3)
T1 sequence (Q96RI1 244-472 isoform Q96RI1-2): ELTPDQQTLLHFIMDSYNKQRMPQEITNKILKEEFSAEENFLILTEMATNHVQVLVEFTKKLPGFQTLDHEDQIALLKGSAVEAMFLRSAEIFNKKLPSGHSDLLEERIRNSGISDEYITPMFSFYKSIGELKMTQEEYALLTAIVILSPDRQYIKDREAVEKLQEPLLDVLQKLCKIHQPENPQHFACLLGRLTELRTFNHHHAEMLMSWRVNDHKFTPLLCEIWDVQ
Description: (§1) For hit validation, we employed secondary assays with orthogonal readouts to confirm fragment activities. Biochemical activity assays were chosen for the enzymes sEH, LTA4H, and 5‐LOX. […] RXRα and FXR modulation was assessed in cell‐based hybrid reporter gene assays. All ten compounds were tested at a single concentration of 500 μM in the sEH and LTA4H activity assays and with a concentration of 100 μM on 5‐LOX, RXRα, and FXR. Fragments showing an inhibition greater than 50 % (sEH‐H and LTA4H) or greater than 70 % (5‐LOX) as well as the hits determined in the DSF experiments were further characterized in full concentration‐response curves between 0.1 and 1000 μM. […] As alternative cell‐free assay we employed isothermal titration calorimetry (ITC) to determine binding affinity of the fragments towards the LBDs of both nuclear receptors. ITC was performed with a protein concentration of 50 μM and compound concentrations of 250 μM. […]
(§2) Final concentration per well was 3 nM sEH-Fl, 0.001 % Triton X-100, 25 mM Bis-tris, 0.1 mg/ml BSA, pH = 7.0, 1.6% DMSO […]

RXRα = target: T2, RXRα (Homo sapiens, UniProt P19793); test: ITC measurement RXRα LBD; set-up: key: n.b.: no binding; w.b.: weak binding; details: 50 μM protein, 250 μM compound, 25 °C
T2 construct: MBP (N, cleaved yes); poly-N-tag, His8-tag, TEV site (N, cleaved yes); made in house; host or cells: E. coli T7-express with pGro7 (GroEL/ES)
T2 sequence (P19793 225-462): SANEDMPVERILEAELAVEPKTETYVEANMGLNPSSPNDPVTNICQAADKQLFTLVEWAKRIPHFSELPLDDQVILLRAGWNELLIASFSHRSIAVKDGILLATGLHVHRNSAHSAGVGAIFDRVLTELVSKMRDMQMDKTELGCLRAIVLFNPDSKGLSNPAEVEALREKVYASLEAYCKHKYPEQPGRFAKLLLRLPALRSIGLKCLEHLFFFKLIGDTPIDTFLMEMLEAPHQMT
Description: as §1, §2

LTA4H = target: T3, LTA4H (Homo sapiens, UniProt P09960); test: ITC measurement LTA4H; details: 25 °C, read-out: LTA4H K d
T3 construct: made in house; host or cells: E. coli BL21 (DE3)
T3 sequence (P09960 1-611): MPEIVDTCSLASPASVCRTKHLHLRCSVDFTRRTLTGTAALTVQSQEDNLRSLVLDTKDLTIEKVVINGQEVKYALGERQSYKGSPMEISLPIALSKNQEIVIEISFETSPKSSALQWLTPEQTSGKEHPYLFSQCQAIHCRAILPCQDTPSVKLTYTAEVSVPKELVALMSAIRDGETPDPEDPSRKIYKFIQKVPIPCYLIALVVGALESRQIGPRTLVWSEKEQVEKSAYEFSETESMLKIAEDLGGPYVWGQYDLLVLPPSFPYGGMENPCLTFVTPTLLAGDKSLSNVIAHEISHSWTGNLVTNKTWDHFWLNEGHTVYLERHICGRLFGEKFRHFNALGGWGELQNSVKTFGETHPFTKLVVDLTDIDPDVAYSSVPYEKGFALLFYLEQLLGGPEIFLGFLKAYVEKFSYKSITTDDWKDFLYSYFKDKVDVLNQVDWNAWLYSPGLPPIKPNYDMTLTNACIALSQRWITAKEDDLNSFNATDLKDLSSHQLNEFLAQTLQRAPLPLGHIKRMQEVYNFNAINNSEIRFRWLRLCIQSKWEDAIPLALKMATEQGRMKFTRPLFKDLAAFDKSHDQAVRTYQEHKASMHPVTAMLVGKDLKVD

sEH-H = target: T4, sEH-H (Homo sapiens, UniProt P34913); test: ITC measurement sEH-H; details: 25 °C, read-out: sEH K d
T4 construct: For the expression of sEH-H and sEH-Fl transformed E.coli BL21 (DE3) cells were grown in 5052; made in house; host or cells: E. coli BL21 (DE3)
T4 sequence (P34913 235-555 limits assumed): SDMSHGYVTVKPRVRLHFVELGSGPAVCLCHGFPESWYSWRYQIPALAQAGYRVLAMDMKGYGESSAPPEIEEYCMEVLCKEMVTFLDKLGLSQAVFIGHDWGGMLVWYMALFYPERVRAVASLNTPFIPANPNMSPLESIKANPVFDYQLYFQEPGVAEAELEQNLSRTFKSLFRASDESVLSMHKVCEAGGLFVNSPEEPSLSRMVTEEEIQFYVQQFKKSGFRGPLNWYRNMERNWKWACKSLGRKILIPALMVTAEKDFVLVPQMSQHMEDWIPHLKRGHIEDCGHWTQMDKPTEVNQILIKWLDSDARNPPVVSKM

| FXR K d (FXR) | RXRα K d (RXRα) | Kd (LTA4H) [nM] | Kd (sEH-H) [nM] | SMILES |
| --- | --- | --- | --- | --- |
| n.b. | – | – | – | Oc1ccc2cc[nH]c2c1 [Compound 5] |
| w.b. | – | – | – | Clc1ccc2c(c1)Nc1ccccc1CC2 [Compound 8] |
| – | n.b. | 5300 | 3500 | Oc1ccc(-c2ccc(F)cc2F)cc1 [Compound 9] |
| n.b. | n.b. | 1700 | 860 | Fc1ccc(-c2c[nH]c3ccccc23)cc1 [Compound 10] |

| SMILES | FXR K d (FXR) | RXRα K d (RXRα) | Kd (LTA4H) [nM] | Kd (sEH-H) [nM] |
| --- | --- | --- | --- | --- |
| c1ccc(N2CCNCC2)nc1 [Compound 1] | n.b. | n.b. | – | – |

Reference: publication PMC8049054, “Systematic Assessment of Fragment Identification for Multitarget Drug Design” (Chemmedchem, 2021)
